Results on three molecules are retold here after publication PMC5750217 (Nature Communications, 2018).

This assay concerns the target T1, GltPh-R397C (Pyrococcus horikoshii, UniProt O59010, R397C).
T1 construct: hexa-His (N, cleaved yes); made in house; host or cells: Escherichia coli Top10 (pBAD)
Put plainly: biochemical. The following applies: for Transport of radiolabelled substrate into proteoliposomes (in words): 100 nM L-[3H]aspartate, 1 µM L-[3H]glutamine, 10 µM 35S-cysteine ± 1 mM DTT, Na+ gradient. Here is the method: Mutant and wild-type GltPh with an amino-terminal hexa-His tag were expressed in Escherichia coli Top10 cells (Invitrogen), which were grown in Luria broth medium at 37 °C. Ampicillin was added to a final concentration of 100 μg per ml. To induce expression of GltPh, 0.1% L-arabinose was added when cells reached an optical density of 0.6 at 660 nm, and cells were harvested 4 h post induction. Membranes were isolated, and then solubilised with n-dodecyl-β-D-maltopyranoside (C12M, Anatrace). Histidine containing proteins were purified using Ni^2+−nitrilotriacetic acid resin (Qiagen). The histidine tag was subsequently removed from GltPh by digestion with thrombin (10 U per mg protein) and the protein further purified on a Superdex 200 size exclusion column, where the detergent was exchanged to n-decyl-β-D-maltopyranoside (C10M, Anatrace).
Pure protein was reconstituted into liposomes composed of 75% E. coli Polar Lipid Extract and 25% 1-palmitoyl-2-oleoyl-sn-glycero-3 ^−phopshocholine (Avanti Polar Lipids). Lipids were mixed, dried under nitrogen and resuspended in internal buffer (100 mM KCl, 20 mM HEPES-Tris pH 7.5) using brief sonication (Laboratory Supplies Co.). The lipid suspension was frozen in liquid nitrogen and thawed at room temperature several times. Liposomes were formed by extrusion through 400 nm polycarbonate membranes (Avanti Polar Lipids) and were treated with Triton X-100 at a 0.5:1 (w/w) detergent to lipid ratio prior to the addition of protein at 0.25 μg protein per mg lipid. The protein/lipid mixture was left at room temperature for 30 min before detergent was removed using SM2 Biobeads (BioRad). The mixture was then incubated with gentle agitation, with four consecutive batches of Biobeads (80 mg per ml). Proteoliposomes were concentrated by centrifugation at 150,000 g for 30 min, resuspended at 100 mg lipid per ml and either used immediately or flash-frozen in liquid nitrogen and stored at −80 °C.
Mutant and wild-type GltPh-mediated transport of radiolabelled substrate was assayed by diluting proteoliposomes (100 mg lipid per ml) 133-fold into uptake buffer (100 mM NaCl, 20 mM HEPES-Tris pH 7.5, 1 μM valinomycin, 100 nM–1 µM L-[^3H]substrate) pre-warmed to 30 °C. At each time point, a 200 µl aliquot was removed and diluted 10-fold into ice-cold quench buffer (100 mM LiCl, 20 mM HEPES-Tris pH 7.5), followed by immediate filtration over nitrocellulose filters (0.22 μm pore size, Millipore). The filters were washed with ice-cold quench buffer and assayed for radioactivity using a Trilux beta counter (PerkinElmer). To establish substrate concentration–response curves, extraliposomal L-[^3H]substrate was varied between 500 nM and 100 µM, maintaining NaCl concentrations at 300 mM. For inhibitor concentration–response curves, for wild-type GltPh 100 nM L-[^3H]aspartate, and for mutant GltPh 1 µM L-[^3H]serine, was co-applied with varying inhibitor concentrations. Background levels of uptake were measured by diluting proteoliposomes into internal buffer (100 mM KCl, 20 mM HEPES-Tris pH 7.5) containing 1 µM of valinomycin and the indicated concentrations of L-[^3H]substrate.
Supplementary Figure 6. GltPh‐R397C, ASCT1 and ASCT2 are functional cysteine transporters. (a) Purified GltPh‐R397C was reconstituted into liposomes and 10µM 35S‐cysteine transport was measured over 10 minutes alone or in the presence of 1 mM dithiothreitol (DTT). Background levels of uptake were measured by diluting proteoliposomes into internal buffer (100 mM KCl, 20 mM HEPES‐Tris pH 7.5) containing 1 µM of valinomycin and the 10µM 35S‐cysteine. […]
(c) Neutral amino acid exchange in GltPh‐R397C. Counterflow experiments in which Na+ and amino acid loaded liposomes were used to detect the transport of a range of unlabelled neutral amino acids by exchanging with external 3H‐serine. Counterflow assays were performed using liposomes containing 200mM NaCl, 20 mM HEPES/Tris pH 7.5, and 1 mM of unlabelled amino acid as indicated. […]

T1 sequence (O59010 whole entry R397C): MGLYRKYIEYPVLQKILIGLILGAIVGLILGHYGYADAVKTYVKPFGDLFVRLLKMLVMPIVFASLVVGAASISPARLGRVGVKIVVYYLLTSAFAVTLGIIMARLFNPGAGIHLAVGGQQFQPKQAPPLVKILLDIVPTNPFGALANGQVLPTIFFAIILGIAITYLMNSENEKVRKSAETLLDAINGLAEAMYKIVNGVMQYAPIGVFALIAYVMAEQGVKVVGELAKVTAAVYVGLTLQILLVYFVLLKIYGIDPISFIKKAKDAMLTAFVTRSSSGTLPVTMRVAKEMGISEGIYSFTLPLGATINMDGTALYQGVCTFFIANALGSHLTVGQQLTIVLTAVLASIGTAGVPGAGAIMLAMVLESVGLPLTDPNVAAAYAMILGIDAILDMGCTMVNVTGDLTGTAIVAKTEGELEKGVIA

Turning to `N[C@@H](CO)C(=O)O` [L-serine], the response was half-maximal at 4.5 ± 0.9 µM (EC50). For the same molecule, where the note is “serine at GltPh-R397C vs L-aspartate at wild-type GltPh”, the “Fold lower affinity for GltPh-R397C compared with L-aspartate for wild-type GltPh” value was 100 fold.

Consider `N[C@@H](CCC(=O)Nc1ccc([N+](=O)[O-])cc1)C(=O)O` [GPNA, glutamyl-p-nitroanilide], for which the “IC50 for inhibition of L-[3H]serine transport” value (GltPh-R397C, 1 µM L-[3H]serine) is listed as “poorly inhibited”.

`NC(=O)CC[C@H](N)C(=O)O` [L-glutamine]: the “Transport of radiolabelled substrate into proteoliposomes (in words)” value runs as follows: (GltPh-R397C, listed as L-Glutamine) “not a substrate”; (GltPh-R397C, listed as L-[^3H]glutamine) “not transported at levels above background”. For the setting “GltPh-R397C, 10 µM L-[3H]serine, 100-fold excess unlabelled amino acid”, the “Reduction of L-[3H]serine transport by unlabelled competitor” value is “able to bind and inhibit”.
